Data on 66 compounds can be found in the CATMoS acute toxicity set (Mansouri et al. 2021).

This series is described as follows: rat acute oral toxicity. The settings on record: in vivo.

Compound `CCNP(=S)(OC)O/C(C)=C/C(=O)OC(C)C` (stereo unspecified) returned an LD50 of 59.5 mg/kg.

`O=P(OCCCl)(OCCCl)OCCCl` returned an LD50 of 466 mg/kg.

Compound `CN(C)C(=O)Nc1ccc(Cl)c(Cl)c1` returned an LD50 of 437 mg/kg.

The compound `C=C(C)C(N)=O` returned an LD50 of 1650 mg/kg.

`CC(C)(C)C(=O)O` showed an LD50 of 900 mg/kg.

In turn, `C=CC[N+](C)(C)CC=C` displayed an LD50 of 2520 mg/kg.

Regarding `CC(C)(N)Cc1ccccc1`, the LD50 was 151 mg/kg.

With `CC(O)COc1ccccc1` (stereo unspecified), the LD50 was determined as 2830 mg/kg.

With `O=c1n(CC2CO2)c(=O)n(CC2CO2)c(=O)n1CC1CO1` (stereo unspecified), the LD50 is 222 mg/kg.

In the case of `O=C(Cl)c1ccccc1`, the LD50 is 2460 mg/kg.

In turn, `CCCCCCC=O` showed an LD50 of 3200 mg/kg.

`CCC(C)c1cc([N+](=O)[O-])cc([N+](=O)[O-])c1OC(=O)C=C(C)C` (stereo unspecified) returned an LD50 of 58 mg/kg.

For the compound `Cc1ncc2n1-c1ccc(Cl)cc1C(c1ccccc1F)=NC2`, the LD50 stood at 215 mg/kg.

Take `CCOP(=O)(OCC)OC(=CCl)c1ccc(Cl)cc1Cl`: the LD50 amounted to 9.66 mg/kg.

Take `COC(C)(C)CCCC(C)C/C=C/C(C)=C/C(=O)OC(C)C` (stereo unspecified): the LD50 is 2320 mg/kg.

Take `O=Cc1ccco1`: the LD50 worked out at 100 mg/kg.

`ClC(Cl)(Cl)C(Cl)(Cl)Cl` yielded an LD50 of 4460 mg/kg.

As for `CCOCCOCCOCC`, the median lethal dose (LD50) was 4970 mg/kg.

Take `CN(C)C=O`: the LD50 is 3000 mg/kg.

Regarding `CN=C=S`, the LD50 came out at 55 mg/kg.

For `CCc1cccc(C)c1N(C(=O)CCl)C(C)COC` (stereo unspecified), the LD50 came out at 2200 mg/kg.

`C#CCO` had an LD50 of 20 mg/kg.

`CN(C)C(=O)Nc1cccc(C(F)(F)F)c1` had an LD50 of 1450 mg/kg.

In the case of `CCOP(=S)(Oc1ccc([N+](=O)[O-])cc1)c1ccccc1` (stereo unspecified), the LD50 was determined as 7 mg/kg.

With `N#Cc1nn(-c2c(Cl)cc(C(F)(F)F)cc2Cl)c(N)c1S(=O)C(F)(F)F` (stereo unspecified), the LD50 was determined as 92 mg/kg.

The compound `OCCNc1ccccc1` had an LD50 of 2230 mg/kg.

The compound `CCC(C)=NO` showed an LD50 of 930 mg/kg.

On to `O=C(O)c1ccccc1-c1c2cc(I)c(=O)c(I)c-2oc2c(I)c(O)c(I)cc12`, for which the LD50 was found to be 1840 mg/kg.

`C=CC=O` registered an LD50 of 11.1 mg/kg.

With `Clc1cccc(Cl)c1`, the LD50 came to 580 mg/kg.

Regarding `COc1cc(OC)nc(Oc2cccc(Oc3nc(OC)cc(OC)n3)c2C(=O)O)n1`, the LD50 came to 2640 mg/kg.

The compound `CCCSP(=O)(OCC)Oc1ccc(Br)cc1Cl` (stereo unspecified) had an LD50 of 358 mg/kg.

`CC(C)=O` had an LD50 of 5800 mg/kg.

Consider `Cc1ccc([N+](=O)[O-])cc1`, for which the LD50 amounted to 2050 mg/kg.

`CCCCCCCCCCCCCCCCCC[N+](C)(C)C` came in with an LD50 of 702 mg/kg.

Compound `N=C(Nc1ccccc1)Nc1ccccc1` displayed an LD50 of 107 mg/kg.

`CC(C)CCCCCCCOP(OCCCCCCCC(C)C)OCCCCCCCC(C)C` yielded an LD50 of 12000 mg/kg.

Consider `Oc1nc2ccccc2[nH]1`, for which the LD50 was 1930 mg/kg.

With `COc1ccc(C(=CC(=O)N2CCOCC2)c2ccc(Cl)cc2)cc1OC`, the LD50 amounted to 3900 mg/kg.

In the case of `CCOCCOCCO`, the LD50 worked out at 5570 mg/kg.

`CCC(CC)Nc1c([N+](=O)[O-])cc(C)c(C)c1[N+](=O)[O-]` returned an LD50 of 1050 mg/kg.

`CCCCOCCOCCOC(OCCOCCOCCCC)c1ccc2c(c1)OCO2` yielded an LD50 of 2940 mg/kg.

In the case of `CCCCOC(=O)CO`, the LD50 turned out to be 4240 mg/kg.

`CCCC(=NOCC)C1=C(O)CC(CC(C)SCC)CC1=O` (stereo unspecified) registered a 50% lethal dose (LD50) of 2680 mg/kg.

In the case of `O=S(=O)(C(Cl)(Cl)Cl)C(Cl)(Cl)Cl`, the LD50 worked out at 535 mg/kg.

For `ClC1=C(Cl)C2(Cl)C3C4CC(C5OC45)C3C1(Cl)C2(Cl)Cl` (stereo unspecified), the LD50 was determined as 3 mg/kg.

As to `C=CC(C#N)OC(C)=O` (stereo unspecified), the LD50 is 31.6 mg/kg.

`C#C[C@]1(O)CC[C@H]2[C@@H]3CCc4cc(O)ccc4[C@H]3CC[C@@]21C` gave an LD50 of 960 mg/kg.

`COCCO` registered a 50% lethal dose (LD50) of 2260 mg/kg.

As to `COCCOCCOCCOC`, the LD50 was 5390 mg/kg.

The compound `CCON=C(CC)C1=C(O)CC(c2c(C)cc(C)cc2C)CC1=O` (stereo unspecified) yielded an LD50 of 934 mg/kg.

Turning to `CCC(C)=NO[Si](ON=C(C)CC)(ON=C(C)CC)ON=C(C)CC`, the LD50 turned out to be 2450 mg/kg.

In turn, `O=c1sc2ccccc2c(O)c1C1CC(c2ccc(-c3ccc(Br)cc3)cc2)Cc2ccccc21` (stereo unspecified) showed an LD50 of 0.55 mg/kg.

In turn, `Cc1ccc(/N=C/N(C)/C=N/c2ccc(C)cc2C)c(C)c1` returned an LD50 of 400 mg/kg.

For the compound `CCCCCCCCCCCCN(CCCN)CCCN`, the LD50 stood at 252 mg/kg.

In turn, `NCCCOCCOCCOCCCN` showed an LD50 of 2850 mg/kg.

As for `C1CN(SSN2CCOCC2)CCO1`, the LD50 is 4300 mg/kg.

`O=C(O)/C=C/C(=O)O` registered an LD50 of 9300 mg/kg.

Compound `CSc1nc(NC(C)C)nc(NC(C)C)n1` displayed an LD50 of 1940 mg/kg.

The compound `C=CC(=O)NC(C)(C)CC(C)=O` yielded an LD50 of 1000 mg/kg.

Turning to `CC(C)(C)C(O)C(Oc1ccc(Cl)cc1)n1cncn1` (stereo unspecified), the LD50 came to 689 mg/kg.

The compound `CCCCOC(=O)C(C)Oc1ccc(Oc2ccc(C(F)(F)F)cn2)cc1` (stereo unspecified) returned an LD50 of 2910 mg/kg.

In turn, `CNC(=O)N(C)c1nnc(C(C)(C)C)s1` displayed an LD50 of 640 mg/kg.

In turn, `CNC(=O)ON=C(C)SC` returned an LD50 of 14.7 mg/kg.

Compound `O=C(O)c1c(Cl)ccc(Cl)c1Cl` yielded an LD50 of 650 mg/kg.

`C1=CC2C3C=CC(C3)C2C1` (stereo unspecified) had an LD50 of 366 mg/kg.

As usually defined, the LD50 is the dose at which mortality reaches 50%. Higher therefore signals a less toxic substance.
